According to paper PMC11084256, “Penifuranone A: A Novel Alkaloid from the Mangrove Endophytic Fungus Penicillium crustosum SCNU-F0006” (International Journal of Molecular Sciences, 2024):
In brackets after ≈: the same amount, converted by molar mass. Like-named read-outs stand apart in the source and are kept apart here.

Tests used:
[1] = test system: Salmonella typhimurium (ATCC 6539); assay: Antibacterial MIC, broth dilution method; format: cell-based; details: 24 h, mean from three parallel experiments; for MIC: Salmonella enterica, read-out: minimum inhibitory concentration (MIC) against Salmonella typhimurium
Experimental: (§1) The bioactivity test screened the following four human pathogenic microorganisms: Pseudomonas aeruginosa (ATCC 9027); Salmonella typhimurium (ATCC 6539); Escherichia coli (ATCC 25922); and Staphylococcus aureus (ATCC 12598). The minimum inhibitory concentration was determined using the broth dilution method, with a minor modification. Bacteria were removed from the refrigerator and cultured dynamically at a constant temperature in a Mueller–Hinton Broth at room temperature for 24 h. The bacterial liquid was diluted with broth to 0.5 McFarland turbidity. The sample was prepared into an initial solution of 1 mg/mL with dimethyl sulfoxide (DMSO), and the concentrations of the 1st to 12th wells of the 96-well plate sample group were made by the double dilution method (mg/mL): 1, 0.5, 0.25, 0.125, and 0.0625. Each plate also contained a positive control (ciprofloxacin or carbendazim), as well as a sterile control and growth control (containing broth and bacterial liquid, no compound). The plates were incubated at 35 °C for 24 h. The use of 10 μL of a solution with a concentration of 11 mg/mL of Esazurin added to each well of a 96-well plate, followed by incubation at 37 °C for 3 h, allowed for the observation of color changes to determine the minimum inhibitory concentration (MIC) values.

[2] = test system: Staphylococcus aureus (ATCC 12598); assay: Antibacterial MIC, broth dilution method; format: cell-based; details: mean from three parallel experiments; for MIC: Staphylococcus aureus, ATCC12598, 24 h, read-out: minimum inhibitory concentration (MIC) against Staphylococcus aureus
Experimental: as §1

[3] = test system: Escherichia coli (ATCC 25922); assay: Antibacterial MIC, broth dilution method; format: cell-based; details: mean from three parallel experiments; for MIC: Escherichia coli, ATCC25922, 24 h, read-out: minimum inhibitory concentration (MIC) against Escherichia coli
Experimental: as §1

[4] = test system: Pseudomonas aeruginosa (ATCC 9027); assay: Antibacterial MIC, broth dilution method; format: cell-based; details: mean from three parallel experiments; for MIC: Pseudomonas aeruginosa, ATCC9027, 24 h, read-out: minimum inhibitory concentration (MIC) against Pseudomonas aeruginosa
Experimental: as §1

Fusarium oxysporum = assay: Antifungal MIC, broth dilution method; format: cell-based; details: 72 h, means from three parallel experiments; for MIC: Fusarium oxysporum, read-out: minimum inhibitory concentration (MIC) against Fusarium oxysporum
Experimental: (§2) The bioactivity test screened the following four phytopathogenic microorganisms: Fusarium oxysporum; Penicillium italicum; Banana Colletotrichum gloeosporioides; and Colletrichum litchi Trag. The minimum inhibitory concentration (MIC) was determined using the broth dilution method, with a minor modification. Fungi were removed from the refrigerator and cultured dynamically at a constant temperature in Potato Dextrose Broth at room temperature for 72 h. The fungal liquid was diluted with broth to 0.5 McFarland turbidity. The sample was prepared into an initial solution of 1 mg/mL with dimethyl sulfoxide (DMSO), and the concentrations of the 1st to 12th wells of the 96-well plate sample group were made by the double dilution method (mg/mL): 1, 0.5, 0.25, 0.125, and 0.0625. Each plate also contained a positive control (ciprofloxacin or carbendazim), as well as a sterile control and growth control (containing broth and fungal liquid, no compound). The plates were incubated at 35 °C for 72 h. The use of 10 μL of a solution with a concentration of 11 mg/mL of Esazurin added to each well of a 96-well plate, followed by incubation at 37 °C for 3 h, allowed for the observation of color changes to determine the minimum inhibitory concentration (MIC) values.

Penicillium italicum = assay: Antifungal MIC, broth dilution method; format: cell-based; details: 72 h, means from three parallel experiments; for MIC: Penicillium italicum, read-out: minimum inhibitory concentration (MIC) against Penicillium italicum
Experimental: as §2

[5] = test system: Banana Colletotrichum gloeosporioides; assay: Antifungal MIC, broth dilution method; format: cell-based; details: 72 h, means from three parallel experiments; for MIC: Colletotrichum gloeosporioides, read-out: minimum inhibitory concentration (MIC) against Banana Colletotrichum gloeosporioides
Experimental: as §2

Colletrichum litchi Tra = assay: Antifungal MIC, broth dilution method; format: cell-based, Colletrichum litchi Trag; details: 72 h, means from three parallel experiments; for MIC: read-out: minimum inhibitory concentration (MIC) against Colletrichum litchi Tra
Experimental: as §2

DPPH scavenging assay = details: 30 min at 37 °C in the dark, read-out: Radical Scavenging Activity (IC50)
Experimental: The assay for scavenging 1,1-Diphenyl-2-picrylhydrazyl radical 2,2-Diphenyl-1-(2,4,6-trinitrophenyl)hydrazyl (DPPH free radicals) was conducted following a previously established modified protocol. The DPPH was dissolved in ethanol to prepare a 0.5 mmol/L DPPH ethanolic solution (10 mL), which was stored away from light. Subsequently, 100 μL of the DPPH solution was added to each well of a 96-well plate. The sample was prepared into an initial solution of 200 μM with ethanol, and the concentrations of the 1st to 12th wells of the 96-well plate sample group were made by the double dilution method (μM): 200,100, 50, 25, and 12.5 μM. The reaction was monitored by measuring the absorbance at 490 nm using a microplate reader (iMark, Bio-Rad, Hercules, CA, USA) after shaking the reaction for 30 min at 37 °C in the dark. The DPPH radical scavenging activity was determined by a comparison of the absorbance of the samples and a blank control. Vitamin C was used as a positive control at the same concentration as the other samples.

[6] = MTT cell viability (cytotoxicity); format: cell-based; details: mouse; for IC50 at 24 h: MTT assay, read-out: cytotoxic effects on RAW 264.7 cells (IC50)
Experimental: (§3) The MTT method was utilized to assess cell viability. RAW 264.7 cells, at a concentration of 5 × 10^5 cells/mL, were plated in 96-well plates and exposed to lipopolysaccharide (LPS, at 1 μg/mL) in the presence or absence of the test compounds for a duration of 24 h. Following this, 100 μL of a 2 mg/mL MTT solution was introduced into each well, and after a 4 h incubation, the resulting formazan precipitates were dissolved in 100 μL of DMSO. The optical density was then determined at 490 nm using a microplate reader (Multiskan GO, Thermo Scientific, Waltham, MA, USA). The results were presented as the average percentage of cell viability relative to the untreated control group.

[7] = test system: NO production in LPS-stimulated RAW 264.7 cells; assay: Inhibition of LPS-stimulated NO production, Griess assay; format: cell-based; details: LPS (1 μg/mL)-stimulated RAW 264.7 cells
Experimental: Compounds 1–2 were evaluated for their inhibitory effects on LPS-stimulated NO production in RAW 264.7 cells using the Griess assay. The cell line RAW 264.7, obtained from the Cell Bank of the Chinese Academy of Sciences (CBCAS) in Shanghai, China, was propagated in Dulbecco’s Modified Eagle Medium (DMEM) supplemented with 10% Fetal Bovine Serum (FBS). In the logarithmic growth phase, the cells were digested with trypsin and inoculated into 96-well plates (1 × 10^5/well). After being cultured at 37 °C with 5% CO2 for 12 h, the cells were treated with DMEM containing different concentrations of compounds (0, 3.125, 6.25, 12.5, 25, 50, and 100 μM). Two hours later, the cells were treated with LPS at a concentration of […] (1 μg/mL) and incubated under standard cell culture conditions for a period of 24 h. Fifty microliters of cell supernatant was mixed with an equal volume of Griess reagent (1% anhydrous p-aminobenzene sulfonic acid and 0.1% N-1-naphthalene ethylenediamine hydrochloride in 5% concentrated phosphoric acid). Absorbance was measured with a microplate reader at 540 nm. The IC50 values were calculated using the SPSS 25.0 statistical software analysis package based on the inhibition rate of each group.

RAW 264.7 cells = assay: MTT cell viability (cytotoxicity); format: cell-based; details: RAW 264.7 cells
Experimental: as §3

[8] = RAW 264.7 cells, MTT, evaluated with cell viability at 50 μM, read-out: Cytotoxicity (CC50)

Row | Molecule | MIC [1] [µg/mL] | MIC [2] [µg/mL] | MIC [3] [µg/mL] | MIC [4] [µg/mL] | MIC (Fusarium oxysporum) [µg/mL] | MIC (Penicillium italicum) [µg/mL] | MIC [5] [µg/mL] | MIC (Colletrichum litchi Tra) [µg/mL] | IC50 (DPPH scavenging assay) [µM] | IC50 at 24 h ([6]; RAW 264.7 cells) [µM] | CC50 at 24 h [6, 8] [µM] | IC50 ([7]; Mus musculus, RAW264.7, 24 h) [µM] | other results
1 | O=C(O)c1cn(C2CC2)c2cc(N3CCNCC3)c(F)cc2c1=O [Ciprofloxacin, reference compound] | < 30 | < 30 | < 30 | < 30 | – | – | – | – | – | – | – | – | –
2 | COC(=O)Nc1nc2ccccc2[nH]1 [Carbendazim, reference compound] | – | – | – | – | < 30 | < 30 | < 30 | < 30 | – | – | – | – | –
3 | C[C@H]1OC(=O)C(CC2=C(O)[C@@H](C)OC2=O)=C1O [Compound 2, (+) - (5R, 5′R) - 3,3′-methylenebistetronic acid] | 1000 (≈ 4160 µM) | > 1000 | 1000 (≈ 4160 µM) | 500 (≈ 2080 µM) | 250 (≈ 1040 µM) | 250 (≈ 1040 µM) | > 1000 | 500 (≈ 2080 µM) | 120 | > 50 | > 50 | 37 ± 0.88 | –
4 | CCCCCCCCCCCCCCCC(=O)OC1=C([C@@H]2CCN(C(=O)CCCCCCCCCCCCCCC)C3=C2C(=O)O[C@@H]3C)C(=O)O[C@@H]1C [Compound 1a] | 1000 (≈ 1350 µM) | > 1000 | > 1000 | 125 (≈ 168 µM) | 250 (≈ 337 µM) | 125 (≈ 168 µM) | > 1000 | 1000 (≈ 1350 µM) | > 200 | < 50 | < 50 | – | melting point: 76.6 to 77.2 °C
5 | 3-hydroxy-4-(3-hydroxyphenyl)quinolin-2(1H)-one [Compound 3] | – | – | – | – | – | – | – | – | > 200 | – | – | – | minimum inhibitory concentration (MIC) against Salmonella typhimurium [1]: 1000 µg/mL; minimum inhibitory concentration (MIC) against Staphylococcus aureus ([2]; 24 h): >1000 µg/mL; minimum inhibitory concentration (MIC) against Escherichia coli ([3]; 24 h): 1000 µg/mL; minimum inhibitory concentration (MIC) against Pseudomonas aeruginosa ([4]; 24 h): 125 µg/mL; minimum inhibitory concentration (MIC) against Fusarium oxysporum (Fusarium oxysporum): 250 µg/mL; minimum inhibitory concentration (MIC) against Penicillium italicum (Penicillium italicum): 500 µg/mL; minimum inhibitory concentration (MIC) against Banana Colletotrichum gloeosporioides [5]: >1000 µg/mL; IC50 (RAW 264.7 cells; MTT assay, read-out: cytotoxic effects on RAW 264.7 cells (IC50)): < 50 µM; CC50 (RAW 264.7 cells; MTT, evaluated with cell viability at 50 μM): < 50 µM; minimum inhibitory concentration (MIC) against Colletrichum litchi Tra (Colletrichum litchi Tra): 1000 µg/mL
6 | COc1ccc2c(c1)c(CC(=O)O)c(C)n2C(=O)c1ccc(Cl)cc1 [Indomethacin, reference compound] | – | – | – | – | – | – | – | – | – | – | – | 35.8 ± 5.7 | CC50 at 24 h [6]: > 50 µM
7 | C[C@@H]1C[C@H]2[C@@H]3CCC4=CC(=O)C=C[C@]4(C)[C@@]3(F)[C@@H](O)C[C@]2(C)[C@@]1(O)C(=O)CO [Dexamethasone, reference compound] | – | – | – | – | – | – | – | – | – | – | > 50 | 58.2 ± 1.74 | –
8 | O=c1[nH]c2ccccc2c(-c2ccccc2)c1O [Compound 4, 3-hydroxy-4-phenylquinolin-2(1H)-one] | 1000 (≈ 4210 µM) | 1000 (≈ 4210 µM) | > 1000 | 500 (≈ 2110 µM) | 250 (≈ 1050 µM) | 250 (≈ 1050 µM) | > 1000 | 1000 (≈ 4210 µM) | > 200 | < 50 | < 50 | – | –
9 | O=C1O[C@H]([C@@H](O)CO)C(O)=C1O [Vitamin C, reference compound] | – | – | – | – | – | – | – | – | 68.4 | – | – | – | –
10 | CC1OC(=O)C(C2CCNC3=C2C(=O)OC3C)=C1O (stereo not shown) [Compound 1, penifuranone A] | 1000 (≈ 3770 µM) | > 1000 | 1000 (≈ 3770 µM) | 500 (≈ 1880 µM) | 250 (≈ 942 µM) | 250 (≈ 942 µM) | > 1000 | 1000 (≈ 3770 µM) | 180 | > 50 | > 50 | 42.2 | IC50 ([7]; 24 h): 42.2 ± 2.26 µM; melting point: 156.7 to 158.2 °C
